In patent US8617872B2, “Compositions for culturing spirochetes” (priority 2000, dated 2013):

Key:
Leptospira [1] = assay: Susceptibility testing of Leptospira isolated from a patient with symptoms of multiple sclerosis; assay type: cell-based; details: for Antibiotic Susceptibility Results, SERUM: Leptospira culture from serum of multiple sclerosis patient; for Antibiotic Susceptibility Results, URINE: Leptospira culture from urine of multiple sclerosis patient
Protocol: This example describes the preparation of a pellet used for antimicrobial susceptibility testing of a culture sample. […] In order to form pellet, an aliquot of this culture sample is placed in a microcentrifuge tube along with 10% SDS solution, and centrifuged at 14,000 g to disrupt the spirochetes and maximize the number of available eptiopic sites. […] This inoculated alternative growth medium was then allowed to incubate in the closed micro centrifuge tube until a distinctive pellet was observed (typically 7-14 days).
MICROSCAN antibiotic susceptibility microtiter plates were then inoculated with (e.g., 110 μl of) inoculum and allowed to incubate at 35° C. for 16-20 hours. The microtiter plates were then scanned for growth and respective sensitivity reaction (both the control well and the growth well).

Tatumella = assay: Antibiotic susceptibility test (MICROSCAN or disc diffusion), control organism Tatumella; assay type: cell-based; details: total isolates 2
Text: (§1) This example describes the preparation of a pellet used for antimicrobial susceptibility testing of a culture sample. The procedure begins with a culture (e.g., prepared in the manner described in Example 2), where serum from a patient is inoculated in GSI-1 media and allowed to grow. In order to form pellet, an aliquot of this culture sample is placed in a microcentrifuge tube along with 10% SDS solution, and centrifuged at 14,000 g to disrupt the spirochetes and maximize the number of available eptiopic sites. The disrupted spirochetes were then cultured in an alternative growth medium made up of one part GSI-1 medium, one part 6.5% lactalbumin hydrolysate, one part 2% brain heart infusion, one part 10% pluronic fluid, and one part of the isolated (disrupted) spirochetes. This inoculated alternative growth medium was then allowed to incubate in the closed micro centrifuge tube until a distinctive pellet was observed (typically 7-14 days).
(§2) Following the observation of pellet formation, the tube was vortexed and incubated at 35° C. until a MacFarlane standard of between 8 to 12% turbidity was achieved. MICROSCAN antibiotic susceptibility microtiter plates were then inoculated with (e.g., 110 μl of) inoculum and allowed to incubate at 35° C. for 16-20 hours. The microtiter plates were then scanned for growth and respective sensitivity reaction (both the control well and the growth well). Table 2 below lists the various antimicrobials tested with this sample and whether growth of the organism was inhibited (susceptible) or whether the growth of the organism was not inhibited (resistant).
(§3) This Example describes the results for susceptibility tests that were performed on a large number of patient samples positive for either Borrelia or Leptospira. […] The results presented in Table 3 reveal the varied response of different types of spirochetes to different antibiotics.

Borrelia = assay: Antibiotic susceptibility test (MICROSCAN or disc diffusion) of patient samples positive for Borrelia; assay type: cell-based; details: total isolates 519
Text: as §1, §2, §3

Treponema isolate = assay: Antimicrobial susceptibility test (MICROSCAN plates) of a patient's Treponema isolate; assay type: cell-based; details: for RESULT (antibiotic susceptibility): Treponema infected patient's isolate, MICROSCAN plates, 35° C., 16-20 hours; for susceptibility profile from a specific human patient: text restating Example 7
Protocol: For susceptibility testing, the organisms harvested could be assayed using any suitable susceptibility assay (See, Example 7). In some embodiments of the present invention, MICROSCAN antibiotic susceptibility plates were inoculated and incubated. Following incubations, plates were scanned for growth and respective sensitivity reaction. […] For the results to be considered reliable, the no growth of organisms was accepted in the negative control well, while the positive control well had to have sufficient growth to be read. In some embodiments of the present invention, to confirm the presence or absence of growing spirochetes in the growth well, aliquots from the growth well were reinoculated with fresh growth media and after an incubation time (e.g., 7-10 days) the presence of the organisms was confirmed (e.g., by phase contrast microscopy or direct fluorescent antibody staining).
as §1
This example describes an antimicrobial susceptibility test performed for a human patient. The patient had previously been testing using GSI-1 medium (e.g., as described in Example 2) for the presence of any spirochetes. […] This culture sample was then transferred to a microcentrifuge tube, and a pellet for antimicrobial susceptibility testing was prepared as described in Example 6.
as §2

Y. entero gp. = assay: Antibiotic susceptibility test (MICROSCAN or disc diffusion), control organism Y. entero gp.; assay type: cell-based; details: total isolates 1
E. coli = assay: Antibiotic susceptibility test (MICROSCAN or disc diffusion), control organism E. coli; assay type: cell-based; details: total isolates 1
Leptospira [2] = assay: Susceptibility testing of Leptospira isolated from a patient with symptoms of rheumatoid arthritis; assay type: cell-based; details: for Antibiotic Susceptibility Results, SERUM: Leptospira culture from serum of rheumatoid arthritis patient; for Antibiotic Susceptibility Results, URINE: Leptospira culture from urine of rheumatoid arthritis patient
Text: as §1
as §2, with “well).” for “well). Table 2 below lists the various antimicrobials tested with this sample and whether growth of the organism was inhibited (susceptible) or whether the growth of the organism was not inhibited (resistant).”
This Example describes the diagnosis and treatment of a human patient with symptoms of rheumatoid arthritis. In particular, serum and urine samples from this patient were initially cultured on GSI-1 (e.g., as described in Example 2), and screened for the presence of spirochetes (e.g., as described in Example 3). […] These cultures were then used to produce pellets for antimicrobial susceptibility testing (e.g., as described in Example 6). The antimicrobial susceptibility tests were then carried out on each sample (e.g., as described in Example 7) with the antimicrobials listed below in Table 5.

Borrelia and Leptospira = assay: Susceptibility of several hundred patient samples having Borrelia and Leptospira infections (population effectiveness); assay type: cell-based
Protocol: In these experiments, several hundred patient samples were cultured on GSI-1 (e.g., as described in Example 2). These culture samples were then used to produce pellets for antimicrobial susceptibility testing as described in Example 6. The antimicrobial susceptibility tests were then carried out on each sample as described in Example 7 or by the disc diffusion method (e.g., instead of MICROSCAN) with the antimicrobials listed below in Table 3.

Pseudomonas = assay: Antibiotic susceptibility test (MICROSCAN or disc diffusion), control organism Pseudomonas; assay type: cell-based; details: total isolates 1
A. lwoffii = assay: Antibiotic susceptibility test (MICROSCAN or disc diffusion), control organism A. lwoffii; assay type: cell-based; details: total isolates 1
Leptospira [3] = assay: Antibiotic susceptibility test (MICROSCAN or disc diffusion) of patient samples positive for Leptospira; assay type: cell-based; details: total isolates 276
Text: as §1, §2, §3

[4] = tested on: Borrelia burgdorferi infection in a human patient; assay: Treatment of a human patient with Borrelia burgdorferi infection; assay type: in vivo; details: human patient with neurological distress, Borrelia burgdorferi positive

Row | Compound | Antibiotic Susceptibility Results, SERUM (Leptospira [1]) | Antibiotic Susceptibility Results, URINE (Leptospira [1]) | Antibiotic Susceptibility Test Results, Tatumella (Tatumella) | Antibiotic Susceptibility Test Results, Borrelia (Borrelia) | RESULT (antibiotic susceptibility) (Treponema isolate) | susceptibility profile from a specific human patient (Treponema isolate) | Antibiotic Susceptibility Test Results, Y. entero gp. (Y. entero gp.) | Antibiotic Susceptibility Test Results, E. coli (E. coli) | Antibiotic Susceptibility Results, SERUM (Leptospira [2]) | Antibiotic Susceptibility Results, URINE (Leptospira [2]) | effectiveness in the population (Borrelia and Leptospira) | Antibiotic Susceptibility Test Results, Pseudomonas (Pseudomonas) | Antibiotic Susceptibility Test Results, A. lwoffii (A. lwoffii) | Antibiotic Susceptibility Test Results, Leptospira (Leptospira [3]) | patient response to treatment [4]
1 | C[C@H]1[C@H](NC(=O)/C(=N\OC(C)(C)C(=O)O)c2csc(N)n2)C(=O)N1S(=O)(=O)O [Aztreonam] | Resistant | Resistant | 0% | 11% | Susceptible | sensitive | 0% | 100% | Resistant | Resistant | less than 20% | 100% | 100% | 15% | –
2 | Amoxicillin/Clavulanate [Augmentin] | Resistant | Resistant | 100% | 90% | Resistant | resistance | 100% | 100% | Susceptible | Susceptible | over 80% | – | – | 89% | –
3 | CO/N=C(\C(=O)N[C@@H]1C(=O)N2C(C(=O)O)=C(CSc3nc(=O)c(=O)[nH]n3C)CS[C@H]12)c1csc(N)n1 [ceftriaxone] | – | – | – | – | – | – | – | – | – | – | – | – | – | – | responded well until the medication was stopped
